Measured values as given in US7553105B1, “Method and compositions for treatment of subsurface contaminants” (Colorado School of Mines, priority 2005, dated 2009).
In brackets after ≈: the same amount, converted by molar mass. Several values for one entry are separate records, joined by “and”; a condition that tells them apart may be missing. Equal values may be shown once. Read-outs that look alike come from different tables or passages of the source. Marks after values point to notes of the source that are not given here.

Key:
[1] = Batch screening for compatibility of surfactants/cosolvents with KMnO4; conditions: for effect of surfactant concentration on compatibility with permanganate: FIG. 1
Description: Seventy two surfactants were tested alone or in the presence of cosolvents to determine compatibility with KMnO4. Concentrations for each constituent corresponded to one of two remediation scenarios: (1) a relatively high wt-% of surfactants, i.e., 1-10 wt-%, is coupled with oxidants representative of conditions where a surfactant flush is conducted and followed by one or more water flushes, with high levels of surfactant remaining when the oxidant is introduced (note that this scenario could also represent co-injection of surfactant and oxidant); and (2) a relatively low wt-% of surfactant, i.e., 0.01-0.1 wt-%, is coupled with oxidants representative of conditions where a surfactant flush is conducted by water flush with low levels of surfactant remaining when the oxidant is introduced.
The two cases are representative of the range of possible concentrations that may be encountered during pre- and post-remedial agent flushing scenarios. […] Potassium permanganate concentrations of 500 mg/L to 5,000 mg/L were used in the screening tests, these concentrations being representative for both laboratory conditions and field applications.
Solutions containing surfactant alone, cosolvent alone, or mixtures of surfactant and cosolvent were used in the batch screening studies. Qualitative and quantitative criteria were used to define a compatible coupling. For example, a bright purple color provides a visual qualitative assessment regarding oxidant consumption, therefore solutions that remained bright purple with relatively few manganese dioxide solids generated throughout the 24-hour reaction period were deemed compatible.
The batch screening samples were prepared in 40 ml type A borosilicate glass vials with Teflon®-lined septa. The desired surfactant concentration (corrected for active weight percent) was weighed and dispensed into each sample vial. Thirty milliliters of a 5,000 mg/L KMnO4 solution prepared with de-ionized water was dispensed into each vial. If cosolvent was present, the desired weight percent was added to the vial on a vol/vol basis. The total sample volume was 30-ml, leaving 10-ml of headspace in the event of gas or foam generation. The vials were shaken until the solutions were well mixed.
Visual observation on each vial was made at three, twenty-four and forty-eight hours. The amount of oxidant remaining in the surfactant, or surfactant/cosolvent, solution was determined with a Hach DR/4000 Ultraviolet Spectrophotometer (UV Spec.). A 0.1 ml aliquot of sample was filtered with a 10-micron filter and dispensed into a 10-ml vial, followed by addition of 9.9 mLs of de-ionized water. The resultant solution has a permanganate dilution of less than 50 mg/L (ideal absorbance measurement range). Samples were analyzed at 525 nm for KMnO4 with final concentrations derived from a 6-point standard calibration curve.

[2] = 25° C.; cited from earlier work
[3] = maximum contaminant level, USEPA; cited from earlier work
[4] = Example 3 batch compatibility of cosolvents and surfactants with permanganate; conditions: 5,000 mg/L KMnO4; 24-48 hr observation
Description: Batch studies were performed to evaluate the compatibility of alcohol cosolvents and surfactants for use with oxidants during treatment of DNAPLs.

[5] = Solubility of PCE in surfactants, co-surfactants and electrolytes versus water alone; assay type: physicochemical
Description: Co-surfactants and electrolytes serve to further enhance the solubilization capacity of any given surfactant.
Therefore use of equilibrium values in the prediction of surfactant enhanced remediation performance may result in the underestimation of remediation times and costs.
PCE concentrations were determined using a Hewlett-Packard gas chromatograph (GC) equipped with auto-ampler and electron capture detector (ECD).

[6] = Solubility in water 20° C.; assay type: physicochemical; conditions: measured for this study
[7] = Batch surfactant sorption experiments; assay type: physicochemical; conditions: medium-grained laboratory sand
Source text: Adsorption isotherms of ionic surfactants onto charged sites are typically approximated using a Langmuir model (Rosen, 1989).

[8] = vendor data, cited from earlier work
[9] = Density of 3.5 wt % Dowfax 8390 solution; conditions: 3.5 wt % solution, 23° C., average of five measurements
[10] = literature; cited from earlier work
[11] = Interfacial tension, DuNuoy ring tensiometer; conditions: 3.5 wt % Dowfax 8390 solution equilibrated with PCE, average of five measurements
[12] = 3-hour observation, 3.5 wt % surfactant + 5000 mg/L KMnO4
[13] = 24-hour observation, 3.5 wt % surfactant + 5000 mg/L KMnO4
[14] = MnO4^− loss, 3-hour observation, 3.5 wt % surfactant + 5000 mg/L KMnO4
[15] = MnO4^− loss, 24-hour observation, 3.5 wt % surfactant + 5000 mg/L KMnO4

## (C16 linear) Sodium diphenyl oxide sulfonate [Calfax 16L-35]
[1]; [12]
  Average MnO4^−: 4340 mg/L
[1]; [13]
  Average MnO4^−: 4183 mg/L
[1]; [14]
  % mass loss: 14%
[1]; [15]
  % mass loss: 15%

## Cc1ccc(C)cc1 [p-Xylene]
[2]
  Solubility in water: 210 µg/mL (≈ 1980 µM)
[3]
  MCL: 10 mg/L

## c1ccc2c(c1)ccc1ccccc12 [Phenanthrene (PAH), Phenanthrene]
[2]
  Solubility in water: 6.2 µg/mL (≈ 34.8 µM)
[3]
  MCL: 0.0002 mg/L

## CCc1ccccc1 [Ethylbenzene]
[2]
  Solubility in water: 152 µg/mL (≈ 1430 µM)
[3]
  MCL: 0.7 mg/L

## c1ccc2ccccc2c1 [Napthalene (PAH), Napthalene]
[2]
  Solubility in water: 33 µg/mL (≈ 257 µM)
[3]
  MCL: 0.0002 mg/L

## Clc1ccccc1 [Chlorobenzene]
[2]
  Solubility in water: 472 µg/mL (≈ 4190 µM)

## ClC=C(Cl)Cl [Trichloroethene, trichloroethene]
[3]
  MCL: 0.005 mg/L

## CC(C)=O [Acetone]
[1]
  % mass loss: 98%

## CCCCCCCCCC [n-Decane]
[2]
  Solubility in water: 0.053 µg/mL (≈ 0.372 µM)

## CCCCCCCC/C=C\CCCCCCCC(=O)OCCOCC(OCCO)C1OCC(OCCO)C1OCCO (centres unmarked) [Tween 80, polyoxyethylene (20) sorbitan monooleate]
[1]
  effect of surfactant concentration on compatibility with permanganate: only compatible at low residual levels with permanganate
[1]; [14]
  % mass loss: 100%
[1]; [15]
  % mass loss: 100%

## Clc1cc2c(cc1Cl)Oc1cc(Cl)c(Cl)cc1O2 [Dioxin (2,3,7,8-TCDD), 2,3,7,8-TCDD]
[2]
  Solubility in water: 1.9e-09 µg/mL (≈ 5.9e-09 µM)
[3]
  MCL: 3e-08 mg/L

## CC(C)(C)O [tert-butanol]
[1]
  % mass loss: 2% and 4%
  Average MnO4^−: 5075 mg/L and 4986 mg/L
[4]
  Relative Amount of MnO2 Solids Generated: None
  Solution Color: Dark

## CCCCCCCC [n-Octane]
[2]
  Solubility in water: 0.72 µg/mL (≈ 6.3 µM)

## CCCCCCCCCCCCc1ccc(S(=O)(=O)O)cc1 [SDBS]
[1]; [12]
  Average MnO4^−: 3442 mg/L
[1]; [13]
  Average MnO4^−: 1896 mg/L
[1]; [14]
  % mass loss: 29%
[1]; [15]
  % mass loss: 61%

## ClC(Cl)=C(Cl)Cl [PCE, tetrachloroethene]
[5]; in 5% Dowfax + 3% AOT
  5% Dowfax + 3% AOT: PCE: 31,954 mg/L
[5]; in 5% Dowfax + 3% AOT + 3% NaBr
  5% Dowfax + 3% AOT + 3% NaBr: PCE: 107,284 mg/L
[5]; in 5% SDS + 3% AOT
  5% SDS + 3% AOT: PCE: 21,410 mg/L
[5]; in 5% SDS + 3% AOT + 3% NaBr
  5% SDS + 3% AOT + 3% NaBr: PCE: 62,700 mg/L
[5]; water only
  PCE in water only: 200 mg/L
[6]
  solubility: 250 µg/mL (≈ 1510 µM)
[3]
  MCL: 0.005 mg/L

## Cc1ccccc1C [o-Xylene]
[2]
  Solubility in water: 175 µg/mL (≈ 1650 µM)

## CCCCCCCCCCCCOS(=O)(=O)[O-].[Na+] [SDS, sodium dodecyl sulfate]
[1]
  compatibility with permanganate: compatible with permanganate
[1]; [12]
  Average MnO4^−: 4523 mg/L
[1]; [13]
  Average MnO4^−: 4393 mg/L
[1]; [14]
  % mass loss: 6%
[1]; [15]
  % mass loss: 20%

## Sodium hexadecyl diphenyl oxide disulfonate [Dowfax 8390]
[7]
  sorption to laboratory sand: negligible
[1]
  compatibility with permanganate: compatible with permanganate
  effect of surfactant concentration on compatibility with permanganate: not dependent on surfactant concentration
[1]; [12]
  Average MnO4^−: 4458 mg/L
[1]; [13]
  Average MnO4^−: 3980 mg/L
[1]; [14]
  % mass loss: 10%
[1]; [15]
  % mass loss: 23%
[8]; critical micelle concentration
  CMC: 140 mg/L
[8]
  HLB: 78.6
[9]
  Density: 1.007^c g/cm^3
[10]
  sorption to aquifer materials: low sorption to aquifer materials
[11]
  Interfacial Tension: 8.5^c dyne/cm
[4]
  Relative Amount of MnO2 Solids Generated: Few
  Solution Color: Dark

## Cl[C@H]1[C@H](Cl)[C@@H](Cl)[C@@H](Cl)[C@H](Cl)[C@H]1Cl [Lindane (herbicide), Lindane]
[2]
  Solubility in water: 7.3 µg/mL (≈ 25.1 µM)

## c1ccccc1 [Benzene]
[3]
  MCL: 0.005 mg/L
